In article PMC10896643 (Journal of medicinal chemistry, 2023):
“Also recorded” adds a separate entry of the source.

Tests used:
CYP2C19 = CYP2C19 (Homo sapiens, UniProt P33261); experiment: CYP isoform inhibition; format: in vitro ADME
4T1-Luc tumors = experiment: In vivo antitumor activity in 4T1-Luc tumor-bearing mice; conditions: 10 mg/kg i.p., alone or with anti-PD-L1
CYP2D6 = CYP2D6 (Homo sapiens, UniProt P10635); experiment: CYP isoform inhibition; format: in vitro ADME
CYP2C9 = CYP2C9 (Homo sapiens, UniProt P11712); experiment: CYP isoform inhibition; format: in vitro ADME
CYP3A4 = CYP3A4 (Homo sapiens, UniProt P08684); experiment: CYP isoform inhibition; format: in vitro ADME
CYP1A2 = target: T1, CYP1A2 (Homo sapiens, UniProt P05177); experiment: CYP isoform inhibition; format: in vitro ADME
T1 sequence (P05177 1-516): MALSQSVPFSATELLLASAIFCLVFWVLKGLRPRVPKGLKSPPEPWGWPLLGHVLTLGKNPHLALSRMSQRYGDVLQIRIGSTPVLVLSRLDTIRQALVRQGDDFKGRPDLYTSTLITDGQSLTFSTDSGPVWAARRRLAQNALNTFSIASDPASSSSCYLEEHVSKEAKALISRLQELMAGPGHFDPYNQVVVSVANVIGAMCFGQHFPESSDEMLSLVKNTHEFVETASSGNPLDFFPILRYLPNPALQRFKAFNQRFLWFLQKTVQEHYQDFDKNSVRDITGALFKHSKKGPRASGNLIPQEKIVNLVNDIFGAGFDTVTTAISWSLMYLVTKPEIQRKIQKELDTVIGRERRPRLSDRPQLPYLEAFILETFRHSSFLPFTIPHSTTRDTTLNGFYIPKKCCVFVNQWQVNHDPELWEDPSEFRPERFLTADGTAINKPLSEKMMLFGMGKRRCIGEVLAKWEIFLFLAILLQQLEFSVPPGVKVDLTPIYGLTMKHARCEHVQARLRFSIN

hERG K+ channels = hERG K+ channels (Homo sapiens, UniProt Q12809); experiment: hERG K+ channel inhibition; format: in vitro ADME
hA3AR = target: T2, hA3AR (Homo sapiens, UniProt P0DMS8); experiment: cAMP functional assay in CHO-A3 cells; conditions: 10 μM
T2 sequence (P0DMS8 1-318): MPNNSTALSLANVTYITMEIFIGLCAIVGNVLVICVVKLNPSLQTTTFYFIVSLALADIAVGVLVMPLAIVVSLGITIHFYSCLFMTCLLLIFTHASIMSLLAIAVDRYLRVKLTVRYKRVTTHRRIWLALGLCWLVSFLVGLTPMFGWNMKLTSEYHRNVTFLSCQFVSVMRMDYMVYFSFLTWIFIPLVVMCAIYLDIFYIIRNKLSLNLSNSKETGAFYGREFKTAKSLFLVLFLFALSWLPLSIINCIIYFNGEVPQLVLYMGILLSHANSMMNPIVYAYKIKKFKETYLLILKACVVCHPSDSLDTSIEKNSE

hA2AAR = hA2AAR (Homo sapiens, UniProt P29274); experiment: cAMP functional assay in CHO-A2A cells; conditions: 10 μM
hA2AAR, sequence (P29274 whole entry): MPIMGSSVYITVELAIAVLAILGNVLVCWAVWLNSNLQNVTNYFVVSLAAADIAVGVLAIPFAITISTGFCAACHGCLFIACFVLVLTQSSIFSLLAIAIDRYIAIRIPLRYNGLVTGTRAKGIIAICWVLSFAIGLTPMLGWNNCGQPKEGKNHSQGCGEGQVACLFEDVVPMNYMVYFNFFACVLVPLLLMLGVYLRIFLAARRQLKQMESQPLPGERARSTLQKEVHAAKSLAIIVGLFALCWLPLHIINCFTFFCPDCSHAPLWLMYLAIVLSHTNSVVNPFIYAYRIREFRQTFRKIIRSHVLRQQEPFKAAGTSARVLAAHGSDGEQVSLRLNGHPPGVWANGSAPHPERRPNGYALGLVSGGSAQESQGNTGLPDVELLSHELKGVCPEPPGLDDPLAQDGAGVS

CYP3A4, sequence (P08684 whole entry, species assumed, canonical isoform): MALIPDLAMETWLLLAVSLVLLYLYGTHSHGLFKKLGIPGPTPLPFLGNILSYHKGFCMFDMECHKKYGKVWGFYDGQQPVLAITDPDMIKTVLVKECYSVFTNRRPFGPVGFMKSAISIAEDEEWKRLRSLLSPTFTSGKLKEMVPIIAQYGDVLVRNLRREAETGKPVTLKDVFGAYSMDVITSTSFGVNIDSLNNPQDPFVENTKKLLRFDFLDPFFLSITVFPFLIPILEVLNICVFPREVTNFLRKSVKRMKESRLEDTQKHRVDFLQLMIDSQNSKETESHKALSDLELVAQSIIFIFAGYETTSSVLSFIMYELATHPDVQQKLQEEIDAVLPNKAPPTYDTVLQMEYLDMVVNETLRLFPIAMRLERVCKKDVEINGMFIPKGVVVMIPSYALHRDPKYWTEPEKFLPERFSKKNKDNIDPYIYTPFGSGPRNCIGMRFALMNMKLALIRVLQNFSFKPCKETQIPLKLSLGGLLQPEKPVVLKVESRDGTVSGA
CYP2C9, sequence (P11712 whole entry, species assumed, canonical isoform): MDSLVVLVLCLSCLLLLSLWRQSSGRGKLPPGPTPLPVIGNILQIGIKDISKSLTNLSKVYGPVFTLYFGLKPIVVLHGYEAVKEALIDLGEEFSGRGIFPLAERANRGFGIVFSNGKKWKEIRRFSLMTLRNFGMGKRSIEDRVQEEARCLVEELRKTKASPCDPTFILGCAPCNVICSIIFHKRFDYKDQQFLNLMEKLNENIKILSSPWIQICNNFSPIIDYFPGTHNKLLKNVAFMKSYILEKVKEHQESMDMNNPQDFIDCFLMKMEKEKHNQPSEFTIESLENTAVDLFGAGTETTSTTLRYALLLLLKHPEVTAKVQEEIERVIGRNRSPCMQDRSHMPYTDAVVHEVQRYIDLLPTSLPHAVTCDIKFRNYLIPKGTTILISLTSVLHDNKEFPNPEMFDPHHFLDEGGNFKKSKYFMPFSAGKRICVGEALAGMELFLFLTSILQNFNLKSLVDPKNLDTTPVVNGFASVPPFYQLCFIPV
CYP2C19, sequence (P33261 whole entry, species assumed, canonical isoform): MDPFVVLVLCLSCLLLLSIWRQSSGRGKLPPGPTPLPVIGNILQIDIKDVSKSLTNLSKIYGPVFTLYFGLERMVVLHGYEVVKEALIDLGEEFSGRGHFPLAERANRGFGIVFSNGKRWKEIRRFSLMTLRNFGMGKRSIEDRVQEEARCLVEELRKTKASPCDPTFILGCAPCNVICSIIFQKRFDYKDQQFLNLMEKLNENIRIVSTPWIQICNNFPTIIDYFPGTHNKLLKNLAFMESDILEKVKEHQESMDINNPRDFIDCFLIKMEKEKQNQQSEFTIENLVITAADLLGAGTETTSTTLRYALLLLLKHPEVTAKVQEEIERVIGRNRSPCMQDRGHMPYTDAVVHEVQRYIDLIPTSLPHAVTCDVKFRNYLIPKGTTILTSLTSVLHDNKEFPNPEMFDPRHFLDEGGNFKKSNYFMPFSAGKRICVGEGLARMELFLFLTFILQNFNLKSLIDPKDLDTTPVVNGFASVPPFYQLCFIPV
hERG K+ channels, sequence (Q12809 whole entry): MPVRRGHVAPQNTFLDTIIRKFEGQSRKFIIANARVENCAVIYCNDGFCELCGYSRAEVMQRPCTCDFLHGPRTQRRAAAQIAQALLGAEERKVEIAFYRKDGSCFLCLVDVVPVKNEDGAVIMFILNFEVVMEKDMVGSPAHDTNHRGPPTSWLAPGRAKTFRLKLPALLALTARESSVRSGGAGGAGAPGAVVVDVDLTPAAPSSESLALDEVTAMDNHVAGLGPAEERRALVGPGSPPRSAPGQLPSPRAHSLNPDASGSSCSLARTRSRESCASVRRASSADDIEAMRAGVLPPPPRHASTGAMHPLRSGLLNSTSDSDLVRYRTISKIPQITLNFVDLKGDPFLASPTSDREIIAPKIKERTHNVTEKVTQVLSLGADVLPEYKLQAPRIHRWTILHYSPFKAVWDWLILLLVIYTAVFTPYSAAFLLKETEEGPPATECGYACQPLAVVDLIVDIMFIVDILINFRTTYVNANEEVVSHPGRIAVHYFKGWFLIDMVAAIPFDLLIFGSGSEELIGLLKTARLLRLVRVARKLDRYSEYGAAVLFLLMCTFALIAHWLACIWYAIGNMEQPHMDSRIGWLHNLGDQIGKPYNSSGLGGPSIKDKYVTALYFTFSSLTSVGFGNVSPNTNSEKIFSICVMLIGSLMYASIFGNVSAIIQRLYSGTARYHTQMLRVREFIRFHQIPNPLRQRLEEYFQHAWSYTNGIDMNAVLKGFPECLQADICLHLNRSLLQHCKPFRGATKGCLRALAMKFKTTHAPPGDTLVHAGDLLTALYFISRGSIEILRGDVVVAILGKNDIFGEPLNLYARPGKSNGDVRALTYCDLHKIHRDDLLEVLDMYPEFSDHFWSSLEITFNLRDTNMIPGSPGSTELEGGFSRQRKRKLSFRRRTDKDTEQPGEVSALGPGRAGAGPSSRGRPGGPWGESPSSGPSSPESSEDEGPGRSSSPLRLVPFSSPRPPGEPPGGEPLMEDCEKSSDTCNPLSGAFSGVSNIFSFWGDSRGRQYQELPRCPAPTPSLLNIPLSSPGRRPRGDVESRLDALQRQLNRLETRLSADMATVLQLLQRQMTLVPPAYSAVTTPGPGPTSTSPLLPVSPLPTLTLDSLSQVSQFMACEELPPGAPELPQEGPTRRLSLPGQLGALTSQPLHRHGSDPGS
CYP2D6, sequence (P10635 whole entry, species assumed, canonical isoform): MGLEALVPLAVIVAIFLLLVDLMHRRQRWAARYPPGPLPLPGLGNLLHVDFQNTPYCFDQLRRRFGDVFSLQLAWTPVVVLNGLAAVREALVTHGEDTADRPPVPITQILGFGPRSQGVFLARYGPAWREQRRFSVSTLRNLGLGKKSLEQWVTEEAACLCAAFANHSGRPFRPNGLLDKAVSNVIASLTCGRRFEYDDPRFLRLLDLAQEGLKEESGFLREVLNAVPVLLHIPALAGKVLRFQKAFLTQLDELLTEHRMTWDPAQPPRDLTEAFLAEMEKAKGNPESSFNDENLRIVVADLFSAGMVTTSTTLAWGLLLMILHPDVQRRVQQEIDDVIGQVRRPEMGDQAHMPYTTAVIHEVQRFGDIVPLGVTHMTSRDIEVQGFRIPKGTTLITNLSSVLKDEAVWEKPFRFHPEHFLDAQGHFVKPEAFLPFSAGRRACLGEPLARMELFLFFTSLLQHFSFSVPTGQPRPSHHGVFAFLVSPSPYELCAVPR

SMILES | CYP2C19 inhibition (CYP2C19) | adverse effects / body weight loss (4T1-Luc tumors) | CYP2D6 inhibition (CYP2D6) | CYP2C9 inhibition (CYP2C9) | CYP3A4 inhibition (CYP3A4) | CYP1A2 inhibition (CYP1A2) | hERG K+ channel inhibition (hERG K+ channels) | hA3AR activation (hA3AR) | receptor activation / antagonism at hA2AAR (hA2AAR)
CCCCC#Cc1nc(N)c2nc(-c3cccs3)n([C@@H]3OC[C@@H](O)[C@H]3O)c2n1 [5d, (2R,3R,4R)-2-(6-Amino-2-(hex-1-yn-1-yl)-8-(thiophen-2-yl)-9H-purin-9-yl)tetrahydrofuran-3,4-diol] | did not significantly inhibit | No adverse effects or body weight loss; also recorded: without any adverse effects and body weight loss | did not significantly inhibit | did not significantly inhibit | did not significantly inhibit | did not significantly inhibit | did not significantly inhibit | – | –
CCCCC#Cc1nc(N)c2nc(-c3ccco3)n([C@@H]3OC[C@@H](O)[C@H]3O)c2n1 [5a, (2R,3R,4R)-2-(6-Amino-8-(furan-2-yl)-2-(hex-1-yn-1-yl)-9H-purin-9-yl)tetrahydrofuran-3,4-diol] | – | – | – | – | – | – | – | inhibited hA3AR activation | no receptor activation
